The assay has as its target Tyrosine-protein kinase SYK (Homo sapiens) (UniProt P43405). The experiment in a line: Inhibition of SYK.

As a reminder, the Ki is the equilibrium dissociation constant of an inhibitor or competing ligand from its target. Read a low Ki as higher affinity. `CC(C)C[C@H]1CN(c2ccc(C(F)(F)F)c(C(=O)c3cccnc3N)n2)CCN1` had an inhibitory constant (Ki) of more than 4 µM.

These data come from BindingDB's records for doi:10.1016/j.bmcl.2012.05.114 (Vertex Pharmaceuticals, 2012).
